Measured values as given in ChEMBL document CHEMBL1909046, “DrugMatrix in vitro pharmacology data”.

Columns and labels:
[1] = target: Beta-2 adrenergic receptor (Homo sapiens, UniProt P07550); assay: DRUGMATRIX: Adrenergic beta2 radioligand binding (ligand: [3H] CGP-12177); type: cell membranes, Membrane; details: cho; Not Active = under 50% inhibition at 10 µM
[2] = DRUGMATRIX: Serotonin (5-Hydroxytryptamine) 5-HT3 radioligand binding (ligand: [3H] GR-65630); type: cell membranes, Membrane; details: hek293; Not Active = under 50% inhibition at 10 µM
[3] = target: T1, Alpha-1A adrenergic receptor (Rattus norvegicus, UniProt P43140); assay: DRUGMATRIX: Alpha-1A adrenergic receptor radioligand binding (ligand: prazosin); type: cell membranes, Wistar, Submaxillary gland, Membrane; details: Not Active = under 50% inhibition at 10 µM
T1 sequence (P43140 whole entry): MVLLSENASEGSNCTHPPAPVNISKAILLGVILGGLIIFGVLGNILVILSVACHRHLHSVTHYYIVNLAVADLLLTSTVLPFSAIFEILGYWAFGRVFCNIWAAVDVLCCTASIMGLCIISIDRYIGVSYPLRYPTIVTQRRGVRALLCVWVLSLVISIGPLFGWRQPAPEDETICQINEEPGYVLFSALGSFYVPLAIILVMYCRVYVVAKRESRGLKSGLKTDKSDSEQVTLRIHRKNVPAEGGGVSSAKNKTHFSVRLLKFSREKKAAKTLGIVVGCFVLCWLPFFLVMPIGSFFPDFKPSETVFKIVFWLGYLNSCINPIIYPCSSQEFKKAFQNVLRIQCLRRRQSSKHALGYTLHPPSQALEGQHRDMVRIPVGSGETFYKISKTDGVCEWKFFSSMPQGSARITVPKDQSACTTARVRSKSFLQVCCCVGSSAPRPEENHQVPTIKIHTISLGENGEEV

[4] = target: T2, 3-hydroxy-3-methylglutaryl-coenzyme A reductase (Homo sapiens, UniProt P04035); design: species or system Escherichia coli;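 also: enzyme inhibition assay of HMG-CoA reductase using radiolabeled [14C]HMG-CoA as substrate; in other assays of this panel Not Active means under 50% inhibition at 10 µM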
T2 sequence (P04035 whole entry): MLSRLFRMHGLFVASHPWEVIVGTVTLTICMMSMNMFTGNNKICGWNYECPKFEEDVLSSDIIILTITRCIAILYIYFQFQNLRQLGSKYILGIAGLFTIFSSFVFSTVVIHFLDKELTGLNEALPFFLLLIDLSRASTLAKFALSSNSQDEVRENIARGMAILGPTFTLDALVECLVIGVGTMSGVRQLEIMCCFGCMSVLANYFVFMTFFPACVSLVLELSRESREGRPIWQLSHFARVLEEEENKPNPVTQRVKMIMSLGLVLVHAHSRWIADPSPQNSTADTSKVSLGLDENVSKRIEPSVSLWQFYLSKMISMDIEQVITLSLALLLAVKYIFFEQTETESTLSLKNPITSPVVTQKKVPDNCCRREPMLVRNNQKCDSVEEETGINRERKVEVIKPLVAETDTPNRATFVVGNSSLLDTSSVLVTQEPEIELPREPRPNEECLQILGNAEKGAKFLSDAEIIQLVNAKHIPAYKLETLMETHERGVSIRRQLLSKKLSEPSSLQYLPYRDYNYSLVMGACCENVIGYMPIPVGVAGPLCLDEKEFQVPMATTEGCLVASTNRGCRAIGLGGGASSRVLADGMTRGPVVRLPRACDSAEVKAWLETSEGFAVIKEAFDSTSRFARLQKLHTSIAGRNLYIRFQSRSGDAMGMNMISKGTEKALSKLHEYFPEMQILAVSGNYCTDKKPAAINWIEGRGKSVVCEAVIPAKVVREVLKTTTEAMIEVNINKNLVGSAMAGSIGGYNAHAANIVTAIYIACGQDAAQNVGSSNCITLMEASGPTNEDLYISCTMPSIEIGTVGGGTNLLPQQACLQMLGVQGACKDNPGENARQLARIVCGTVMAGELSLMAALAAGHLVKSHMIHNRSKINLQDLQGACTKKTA

[5] = target: Insulin receptor (Rattus norvegicus, UniProt P15127); type: cell membranes, Wistar, Liver, Membrane; also: in other assays of this panel Not Active means under 50% inhibition at 10 µM
Insulin receptor, sequence (P15127 27-759 limits assumed): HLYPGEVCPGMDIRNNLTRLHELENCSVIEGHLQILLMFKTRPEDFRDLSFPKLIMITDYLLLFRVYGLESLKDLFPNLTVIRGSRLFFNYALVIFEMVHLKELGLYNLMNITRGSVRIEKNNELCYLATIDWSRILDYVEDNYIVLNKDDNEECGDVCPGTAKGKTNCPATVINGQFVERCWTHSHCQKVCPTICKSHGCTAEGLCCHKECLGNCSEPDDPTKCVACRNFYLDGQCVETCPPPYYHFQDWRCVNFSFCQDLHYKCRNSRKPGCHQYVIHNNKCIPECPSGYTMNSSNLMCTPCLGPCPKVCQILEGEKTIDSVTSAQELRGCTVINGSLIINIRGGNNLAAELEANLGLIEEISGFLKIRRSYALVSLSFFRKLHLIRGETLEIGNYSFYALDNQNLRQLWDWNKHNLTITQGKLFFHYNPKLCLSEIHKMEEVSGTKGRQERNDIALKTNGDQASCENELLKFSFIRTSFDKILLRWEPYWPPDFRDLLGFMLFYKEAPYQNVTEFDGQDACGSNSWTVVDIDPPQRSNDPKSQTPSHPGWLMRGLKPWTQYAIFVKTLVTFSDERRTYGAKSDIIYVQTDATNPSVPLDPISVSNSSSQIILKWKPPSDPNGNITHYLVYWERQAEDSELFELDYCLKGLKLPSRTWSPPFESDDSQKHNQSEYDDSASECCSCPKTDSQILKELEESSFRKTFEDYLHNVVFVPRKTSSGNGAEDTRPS
Insulin receptor, sequence (P15127 764-1383 limits assumed): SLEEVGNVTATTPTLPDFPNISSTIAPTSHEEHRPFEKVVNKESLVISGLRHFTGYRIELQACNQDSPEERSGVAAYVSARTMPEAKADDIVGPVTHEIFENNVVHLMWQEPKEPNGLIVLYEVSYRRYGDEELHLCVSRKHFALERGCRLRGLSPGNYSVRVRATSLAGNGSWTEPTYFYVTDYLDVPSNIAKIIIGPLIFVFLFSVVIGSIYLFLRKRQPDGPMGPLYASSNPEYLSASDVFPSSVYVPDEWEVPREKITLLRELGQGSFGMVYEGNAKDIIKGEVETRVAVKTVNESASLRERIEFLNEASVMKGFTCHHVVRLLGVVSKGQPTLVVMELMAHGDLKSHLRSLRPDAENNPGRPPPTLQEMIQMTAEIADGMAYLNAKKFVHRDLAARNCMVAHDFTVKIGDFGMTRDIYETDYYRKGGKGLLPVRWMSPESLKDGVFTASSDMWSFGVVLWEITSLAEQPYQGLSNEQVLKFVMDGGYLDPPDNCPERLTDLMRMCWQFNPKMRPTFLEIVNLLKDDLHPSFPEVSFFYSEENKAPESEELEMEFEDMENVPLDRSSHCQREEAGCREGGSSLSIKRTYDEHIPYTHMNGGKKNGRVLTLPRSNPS

[6] = target: T3, Estrogen receptor (Homo sapiens, UniProt P03372); details: sf9; also: in other assays of this panel Not Active means under 50% inhibition at 10 µM
T3 sequence (P03372 whole entry): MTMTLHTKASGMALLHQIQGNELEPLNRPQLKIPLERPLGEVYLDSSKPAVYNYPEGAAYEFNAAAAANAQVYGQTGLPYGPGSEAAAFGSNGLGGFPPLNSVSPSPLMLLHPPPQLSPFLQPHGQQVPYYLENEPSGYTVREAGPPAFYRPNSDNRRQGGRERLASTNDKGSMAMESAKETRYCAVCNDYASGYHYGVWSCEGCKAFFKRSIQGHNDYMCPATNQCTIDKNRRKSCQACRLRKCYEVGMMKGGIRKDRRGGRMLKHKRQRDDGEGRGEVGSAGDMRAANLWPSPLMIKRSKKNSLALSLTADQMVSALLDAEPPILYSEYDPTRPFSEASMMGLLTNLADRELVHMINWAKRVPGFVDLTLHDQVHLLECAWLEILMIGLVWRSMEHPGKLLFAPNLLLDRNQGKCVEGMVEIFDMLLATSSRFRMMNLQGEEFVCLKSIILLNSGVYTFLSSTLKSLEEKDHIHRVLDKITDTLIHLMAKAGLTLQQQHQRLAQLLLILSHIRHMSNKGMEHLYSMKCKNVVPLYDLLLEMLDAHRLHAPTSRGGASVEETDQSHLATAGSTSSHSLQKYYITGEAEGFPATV

Beta-2 adrenergic receptor, sequence (P07550 whole entry): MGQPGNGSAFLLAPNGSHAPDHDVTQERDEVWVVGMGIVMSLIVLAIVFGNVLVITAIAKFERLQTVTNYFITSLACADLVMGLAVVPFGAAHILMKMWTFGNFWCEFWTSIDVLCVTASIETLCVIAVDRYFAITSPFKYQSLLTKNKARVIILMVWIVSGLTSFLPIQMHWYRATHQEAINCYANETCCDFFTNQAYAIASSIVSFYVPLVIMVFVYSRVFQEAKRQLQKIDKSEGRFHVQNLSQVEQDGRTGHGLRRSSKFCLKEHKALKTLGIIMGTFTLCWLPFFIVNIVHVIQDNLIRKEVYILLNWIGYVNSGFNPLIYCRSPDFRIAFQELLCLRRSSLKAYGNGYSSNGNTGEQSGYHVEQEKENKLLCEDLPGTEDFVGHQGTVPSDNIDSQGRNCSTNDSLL

CC(=O)N[C@@H]1[C@H](Oc2c3cc4cc2Oc2ccc(cc2Cl)[C@@H](O[C@@H]2O[C@@H](CO)[C@@H](O)[C@H](O)[C@@H]2NC(C)=O)[C@@H]2NC(=O)[C@H](NC(=O)[C@@H]4NC(=O)[C@H]4NC(=O)[C@@H](Cc5ccc(c(Cl)c5)O3)NC(=O)[C@H](N)c3ccc(O)c(c3)Oc3cc(O)cc4c3)c3ccc(O)c(c3)-c3c(O[C@H]4O[C@H](CO)[C@@H](O)[C@@H](O)[C@@H]4O)cc(O)cc3[C@@H](C(=O)O)NC2=O)O[C@@H](CO)[C@@H](O)[C@@H]1O
Not Active: IC50 [1] | IC50 [2] | Ki [2] | IC50 [3] | IC50 [4] | IC50 [5] | IC50 [6]

CO[C@H]1/C=C/O[C@@]2(C)Oc3c(C)c(O)c4c(c3C2=O)C2=NC3(CCN(CC(C)C)CC3)NC2=C(NC(=O)/C(C)=C\C=C\[C@H](C)[C@H](O)[C@@H](C)[C@@H](O)[C@@H](C)[C@H](OC(C)=O)[C@@H]1C)C4=O [RIFABUTIN]
Not Active: IC50 [1] | IC50 [2] | Ki [2] | IC50 [3] | IC50 [4] | IC50 [5] | IC50 [6]

CNC(=C[N+](=O)[O-])NCCSCc1ccc(CN(C)C)o1 [RANITIDINE]
Not Active: IC50 [1] | IC50 [2] | Ki [2] | IC50 [3] | IC50 [4] | IC50 [5] | IC50 [6]

CC(C)(C)c1ccc(C(O)CCCN2CCC(C(O)(c3ccccc3)c3ccccc3)CC2)cc1 (configuration not stated) [TERFENADINE]
Not Active: IC50 [1] | IC50 [2] | Ki [2] | IC50 [3] | IC50 [4] | IC50 [5] | IC50 [6]

C[C@@H](N)[C@H]1CC[C@H](C(=O)Nc2ccncc2)CC1 [Y-27632]
Not Active: IC50 [1] | IC50 [2] | Ki [2] | IC50 [3] | IC50 [4] | IC50 [5] | IC50 [6]

CC(C)c1nc(CN(C)C(=O)N[C@H](C(=O)N[C@@H](Cc2ccccc2)C[C@H](O)[C@H](Cc2ccccc2)NC(=O)OCc2cncs2)C(C)C)cs1 [RITONAVIR]
Not Active: IC50 [1] | IC50 [2] | Ki [2] | IC50 [3] | IC50 [4] | IC50 [5] | IC50 [6]
